{"source": "patent US20250099508A1", "about": "“SYSTEMS, CELL LINES AND METHODS OF PRODUCING AND USING THE SAME” (THE REGENTS OF THE UNIVERSITY OF CALIFORNIA, priority 2022, published 2025)", "key": {"mouse colon": {"tested_on": "mouse colon", "test": "Ex vivo colonic motility assay (organ bath, GIMM)", "conditions": "for CMMC intervals at the 75th percentile relative to the untreated condition: five consecutive 10-min acquisitions, mouse colon ex vivo"}, "[1]": {"tested_on": "hESC-derived stage 2 enteric ganglioid NO neurons", "conditions": "cFOS flow cytometry, cultures treated with epinephrine"}, "[2]": {"tested_on": "enteric ganglioid neurons", "conditions": "MEA neuronal firing measurements"}, "[3]": {"tested_on": "stage 1 NOS1::GFP enteric ganglioids", "test": "NO neuron induction in stage 1 enteric ganglioids measured by flow cytometry (NOS1::GFP)", "format": "cell-based, human", "conditions": "for NO neuron induction / NO neuron proportions: RTK ligand treatment, stage 1 enteric ganglioids", "text": "(§1) To evaluate the potential of hPSC-derived cultures to model human ENS development, we set out to define the mechanism of NO neuron specification in vitro. Searching for pathways that regulate NO neuron differentiation, we performed a high-throughput small molecule screen. Identifying distinct pathways and chemical modulators that promote NO neuron induction could provide insights on NO neuron development and offer a strategy for the derivation of NO neuron enriched ENS cultures. • To identify compounds that induce NO neuron differentiation, we treated enteric crestospheres with 1694 compounds in the Selleck inhibitor library™ and identified 12 hit compounds that increased the proportion of NOS1^+ neurons by at least eight folds (FIG. 6A, FIGS. S25A and B). FIG. S25 data not shown, but it describes that small molecule high-throughput screening identifies compounds that enrich NO neurons in hESC-derived ENS cultures. […] After clustering the predicted protein targets, common patterns emerged for a subset of compounds.\nTo determine the mechanism by which PP121 induced NO neuron enrichment in ganglioids, we used a combination of pharmacological and genetic approaches. […] Our crestosphere snRNA-seq analysis confirmed the expression of PDGFRA, PDGFRB, ERBB2 and ERBB3 while the mRNA for VEGFRs were not detectable (FIG. 6L). We evaluated the induction efficiency of NO neurons in response to PDGF (PDGFR agonist), sunitinib (PDGFR and VEGFR antagonist), NRG1 (ERBBs agonist) and sapitinib (ERBBs antagonist) (FIG. 6M). […] To genetically confirm the role of PDGFR signaling in NO neuron induction, we used CRISPR-Cas9 to knock-out PDGFRA and PDGFRB in our enteric crestospheres and analyzed the percentage of NO neurons in stage 1 ganglioids. NO neurons were […] in both PDGFRA and PDGFRB knock-out cultures further confirming the PP121 mechanism of action (FIGS. 6O and P)."}, "VEGFRs": {"tested_on": "VEGFRs", "conditions": "cited from earlier work"}, "PDGFRs": {"tested_on": "PDGFRs", "conditions": "cited from earlier work"}, "[4]": {"tested_on": "H9 hESC-derived enteric crestospheres (NOS1+ neurons)", "test": "High-throughput screening to identify compounds that enrich NO neurons", "format": "cell-based, human", "conditions": "1694 compounds, 1 μM, D15-D20, NOS1 staining at day 40", "text": "as §1\nDay 15 H9 hESC-derived enteric crestospheres were dissociated into single cells (accutase, Stemcell Technologies, 07920, 30 min, 37° C.), resuspended in ENC medium and were transferred into 384-well plates. Plates were incubated for 2 hours for cells to attach. […]"}, "EGFRs": {"tested_on": "EGFRs", "conditions": "cited from earlier work"}, "[5]": {"tested_on": "stage 1 enteric ganglioids", "test": "PP121 vs control gene expression correlation (snRNA-seq)", "format": "cell-based, human", "text": "To compare PP121 treated and untreated stage 1 enteric ganglioids in single cell resolution, we performed snRNA-seq and combined both datasets. […] FIG. S26 data not shown, but it describes PP121 treatment enriches NO neurons without affecting their overall cellular diversity.\nTo compare the gene expression of control and PP121 treated cell types, neuronal subtypes and NO neuron subtypes, a subset dataset of each cell type and subtype annotation was first created. For each subset, the non-imputed average expression of all genes was then calculated for the control and PP121 treated cells using the “AverageExpression” function and natural log transformed for plotting. R^2 values comparing the control and PP121 natural log expression values were calculated from linear modeling using the “y ˜x” formula. cFOS expression screening"}, "[6]": {"conditions": "6-min treatment, all five replicates"}}, "data": [{"molecule": "O=C1CCc2ccc(OCCCCN3CCN(c4cccc(Cl)c4Cl)CC3)cc2N1", "note": "[aripiprazole]", "values": [{"measurement": "CMMC intervals at the 75th percentile relative to the untreated condition", "setting": "mouse colon", "value": "promising effects on lowering CMMC intervals"}]}, {"molecule": "Cc1cccc([C@H](C)c2cnc[nH]2)c1C", "note": "[dexmedetomidine]", "values": [{"measurement": "average duration of LCEs", "setting": "mouse colon; [6]", "value": "increasing trend in their average duration"}, {"measurement": "total number of longitudinal contractile events (LCEs)", "setting": "mouse colon; [6]", "value": "decrease in the total number of LCEs"}, {"measurement": "effects on LCEs after the drug removal", "setting": "mouse colon; Krebs wash after drug", "value": "reversed after the drug removal"}, {"measurement": "effects on LCEs with L-NAME co-treatment", "setting": "mouse colon; L-NAME co-treatment", "value": "blocked by L-NAME co-treatment"}, {"measurement": "effect on CMMC intervals with simultaneous L-NAME", "setting": "mouse colon; dexmedetomidine+L-NAME simultaneously", "value": "absent"}, {"measurement": "CMMC intervals at the 75th percentile relative to the untreated condition", "setting": "mouse colon", "value": "promising effects on lowering CMMC intervals"}, {"measurement": "CMMC intervals", "setting": "mouse colon; sequential 6-min acquisitions, five sample pairs, drug alone", "value": "decreased CMMC intervals in four out of five colon samples"}, {"measurement": "slow waves (SW)", "setting": "mouse colon; sequential drug treatment", "value": "not affected"}]}, {"molecule": "CNC[C@H](O)c1ccc(O)c(O)c1", "note": "[Epinephrine, epinephrine]", "values": [{"measurement": "neuronal cFOS expression", "setting": "[1]", "value": "induced neuronal cFOS expression"}, {"measurement": "electrical firing of ganglioid neurons", "setting": "[2]", "value": "increased electrical firing"}]}, {"molecule": "CNC(=O)CN1CCC(Oc2cc3c(Nc4cccc(Cl)c4F)ncnc3cc2OC)CC1", "note": "[sapitinib]", "values": [{"measurement": "NO neuron induction / NO neuron proportions", "setting": "[3]", "value": "no significant effect"}]}, {"molecule": "PDGF", "values": [{"measurement": "NO neuron induction / NO neuron proportions", "setting": "[3]", "value": "lower"}]}, {"molecule": "O=C1CCC[C@@H]2[C@H]3CCCN4CCC[C@@H](CN12)[C@@H]34", "note": "[matrine]", "values": [{"measurement": "CMMC intervals at the 75th percentile relative to the untreated condition", "setting": "mouse colon", "value": "promising effects on lowering CMMC intervals"}]}, {"molecule": "Nc1ncnc2c1c(-c1cnc3[nH]ccc3c1)nn2C1CCCC1", "note": "[PP121]", "values": [{"measurement": "inhibitory activity on VEGFRs", "setting": "VEGFRs", "value": "known inhibitory activity"}, {"measurement": "inhibitory activity on PDGFRs", "setting": "PDGFRs", "value": "known inhibitory activity"}, {"measurement": "increase of the proportion of NOS1+ neurons relative to vehicle (DMSO)", "setting": "[4]", "value": "highest % NOS1^+ fold increase in this subset of compounds"}, {"measurement": "inhibitory activity on EGFRs", "setting": "EGFRs", "value": "known inhibitory activity"}, {"measurement": "abundance of neuronal subtypes", "setting": "[5]; merged control and PP121 treated neurons, snRNA-seq", "value": "enriched cultures for neuronal subtypes EN D and H"}, {"measurement": "abundance of nitrergic neuron subtypes", "setting": "[5]; merged control and PP121 treated nitrergic neurons", "value": "enrichment for Nitrergic B"}, {"measurement": "NOS1::GFP induction efficiency by treatment window", "setting": "[3]; five-day treatment at various time points, GFP signal in stage 1 ganglioids", "value": "highest induction efficiency for cells treated during day 15-20"}, {"measurement": "NO neuron induction efficiency, dose dependence", "setting": "[3]; flow cytometry", "value": "dose-dependent effect"}]}, {"molecule": "Cc1cccc(C#Cc2ccccc2)n1", "note": "[MPEP]", "values": [{"measurement": "CMMC intervals at the 75th percentile relative to the untreated condition", "setting": "mouse colon", "value": "promising effects on lowering CMMC intervals"}]}]}
